Data reported in publication PMC5840262, “Design, Synthesis and Evaluation of Branched RRWQWR-Based Peptides as Antibacterial Agents Against Clinically Relevant Gram-Positive and Gram-Negative Pathogens” (Frontiers in Microbiology, 2018).
In brackets after ≈: the same amount, converted by molar mass.

Columns and labels:
[1] = system: Enterococcus faecalis ATCC 29212 (sensitive); format: cell-based; details: ATCC 29212, 18 h
Method: (§1) We screened all five peptides against the ATCC reference strains and the clinical isolates according to Method M7-A7 of the National Committee for Clinical Laboratory Standards (CLSI, [2007]). The MIC50 and MBC values were determined using a broth microdilution and growth inhibition method previously reported by Leon-Calvijo et al. ([2015]), with some modifications (Wiegand et al., [2008]). Briefly, the MIC50 experiments comprised a liquid-inhibition growth assay in a sterile, untreated, 96-well flat-bottom tissue culture plate. The bacteria were cultured overnight n Mueller Hinton agar; three colonies were transferred to 8 mL of Mueller Hilton broth and incubated at 37°C until the mid-exponential phase of growth. The turbidity of the cultures was measured and adjusted spectrophotometrically to a McFarland standard of 0.5, and then diluted to a final concentration of 5 × 10^7 colony forming units (CFU) per well. Stock solutions (2,000 μM) of each test peptide were serially diluted to final concentrations (per well) of 200, 100, 50, 25, 12.5, and 6.25 μM. Each concentration was evaluated in duplicate and each assay was performed in triplicate.
(§2) Wells containing Mueller Hilton broth with bacterial inoculum only served as bacterial-growth controls. Additional controls included Mueller Hilton broth alone (as blank) and Mueller Hilton broth with ciprofloxacin (2 μg/mL; as positive control). The microplate was incubated for 24 h at 37°C, and growth inhibition was measured by monitoring the optical density at 620 nm (OD620). The MIC50 was defined as the peptide concentration at which bacterial growth was inhibited by 50%.
(§3) To determine the MBC, an aliquot from each well of the MIC50 assay was spread onto Mueller Hilton agar. After 18 h at 37°C, the concentration that inhibited bacterial growth was determined. Each of these tests was performed four times. MBC was defined as the lowest concentration of peptide at which the number of bacteria was reduced by 99.9% in vitro (European Committee for Antimicrobial Susceptibility Testing, [2000]).

[2] = system: Enterococcus faecalis ATCC 51575 (resistant); format: cell-based
Method: as §1, §2, §3

[3] = system: Pseudomonas aeruginosa ATCC 10145 (sensitive); format: cell-based
Method: as §1, §2, §3

[4] = system: Pseudomonas aeruginosa ATCC 27853 (resistant); format: cell-based
Method: as §1, §2, §3

[5] = system: human erythrocytes; test: Hemolytic activity; format: cell-based; details: red cells of human, 2 h
Method: Human erythrocytes collected from the blood samples of healthy humans were harvested by centrifugation for 7 min at 162 × g and washed three times in phosphate-buffered saline (PBS). The erythrocytes (2% hematocrit in PBS) were incubated with peptide molecules at several concentrations (6.25, 12.5, 25, 50, and 100 μM) for 2 h at 37°C. PBS was used as negative control for hemolysis, and sterile distilled water was used as positive control (100% hemolysis). The plate was subsequently centrifuged at 1,459 × g for 10 min at 4°C. Aliquots of the supernatant from each well (75 μL) were carefully transferred to a new sterile 96-well plate, and hemolytic activity was evaluated by measuring the OD492 using an Asys Expert Plus Microplate reader. The experiments were performed in duplicate, and hemolytic activity was calculated for each peptide.

[6] = system: Gram-negative ATCC strains (K. pneumoniae 13883 and 700603, P. aeruginosa 10145 and 27853)
Excerpt: We determined the therapeutic index of each peptide, which we defined as the ratio of Maximum Hemolytic Activity (Hmax) to MIC50 (Hmax/MIC50).
The therapeutic index (TI) is a ratio of the toxic dose of a substance to its therapeutically-active dose and can be calculated different ways (e.g., LD50/ED50). Here, we calculated a TI value for each peptide against all the Gram-positive or the Gram-negative ATCC strains, by dividing its Hmax by its MIC50 for the given group of strains. […] Additionally, to make our quantitative analysis more robust [geometric mean (Khachatryan et al., [2017]) and fold values], we have included MIC50 values for these peptides against S. aureus and K. pneumoniae that we previously obtained using the same assay, the M7-A7 method of the National Committee for Clinical Laboratory Standards (Leon-Calvijo et al., [2015]).

Structure (SMILES): CSCC[C@H](NC(=O)[C@H](CCCNC(=N)N)NC(=O)[C@H](Cc1c[nH]c2ccccc12)NC(=O)[C@H](CCC(N)=O)NC(=O)[C@H](Cc1c[nH]c2ccccc12)NC(=O)[C@H](CCCNC(=N)N)NC(=O)[C@H](CCCNC(=N)N)NC(=O)[C@H](CS)NC(=O)[C@H](CCCCN)NC(=O)[C@@H](N)Cc1ccccc1)C(=O)N[C@@H](CCCCN)C(=O)N[C@@H](CCCCN)C(=O)N[C@@H](CC(C)C)C(=O)NCC(=O)N[C@@H](C)C(N)=O [LfcinB (17–31), reference compound]
- MBC [1]: >200.0 µM
- MBC ([2]; ATCC 51575, 18 h): >200.0 µM
- MIC50 ([2]; ATCC 51575, 24 h): >200.0 µM
- MBC ([3]; ATCC 10145, 18 h): >200.0 µM
- MIC50 ([3]; ATCC 10145, 24 h): 111.7 µM (≈ 223 µg/mL)
- MBC ([4]; ATCC 27853, 18 h): >200.0 µM
- MIC50 ([4]; ATCC 27853, 24 h): 99.6 µM (≈ 199 µg/mL)
- H50, concentration of peptide leading to 50% hemolysis [5]: >100 µM
- Gm, geometric mean of MIC50 values [6]: 105.5
